Measurements from patent publication US4309407A, “Alkenyl-substituted thienylalkanecarboxylic acids and derivatives thereof” (A. Nattermann & Cie. GmbH, priority 1979, dated 1982).

Key:
[1] = tested on: rats; assay: Ulcer-Inducing Effect on rats; format: in vivo; settings: rat
Text: 4. Ulcer-Inducing Effect on rats [methodology according to W. J. R. Whittle, Brit. J. Pharmacol. 55, 242-3 (1975)].

[2] = tested on: granuloma; assay: Granuloma Test (Cotton Pellet Test); format: in vivo, rat
Text: 2. Granuloma Test (Cotton Pellet Test) [methodology as per R. Meier et al., Experientia 6, 469 (1950)]

[3] = tested on: Rat Paw Edema; assay: Rat Paw Edema Test; format: in vivo
Text: 1. Rat Paw Edema Test [methodology as per Hillebrecht, Arzneim.-Forsch (4), 607 (1954)].

[4] = tested on: Adjuvans Arthritis; assay: Adjuvans Arthritis Test, Rat, p.o.; format: in vivo; settings: 0.1 mg/kg p.o.
Text: 3. Adjuvans Arthritis Test, Rat, p.o. [methodology as per C. N. Pearson, Proc. Soc. Exp. Biol. 91, 95-101 (1956)].

Structure (SMILES) | Ulcer-inducing effect ([1]; 3.2 mg/kg per os) | Ulcer-inducing effect ([1]; 5.6 mg/kg per os) | Ulcer-inducing effect ([1]; 7.5 mg/kg per os) | Decrease in weight of granuloma (%) ([2]; rat dose 0.1 mg/kg per os) | Decrease in weight of granuloma (%) ([2]; rat dose 3.2 mg/kg per os) | Inhibiting effect (%) ([3]; 3.2 mg/kg per os) | Inhibiting effect (%) ([3]; 5.6 mg/kg per os) | Inhibiting effect (%) ([4]; 14th day p.i.) | Inhibiting effect (%) ([4]; 17th day p.i.) | Ulcer-inducing effect ([1]; in vivo, 1 mg/kg) | Ulcer-inducing effect ([1]; in vivo, 10 mg/kg) | Ulcer-inducing effect ([1]; in vivo, 100 mg/kg) | Decrease in weight of granuloma (%) ([2]; rat dose 1.0 mg/kg per os) | Inhibiting effect (%) ([3]; 0.1 mg/kg per os) | Inhibiting effect (%) ([3]; dose printed ".0" mg/kg per os)
COc1ccc2c(c1)c(CC(=O)O)c(C)n2C(=O)c1ccc(Cl)cc1 [Indomethacin, indomethacin] | ++ | +++ | +++ | -21 | -27 | -25 | -45 | -29 | -37 | – | – | – | – | – | –
CCCCCC(=O)C=Cc1ccc(CCCCCCCCC(=O)OC)s1 [Example 5, 9-[5-(3-oxooct-1-enyl)thien-2-yl]nonanoic acid methyl ester] | – | – | – | -24 | – | – | – | -28 | -35 | 0 | 0 | 0 | -13 | -26 | -38
